Laboratory results taken from patent US9175003B2, “Substituted azoanthracene derivatives and intermediates for preparation thereof” (TransTech Pharma, LLC, priority 2009, dated 2015).

These compounds were tested against human GLP-1 receptor (Homo sapiens (Human), UniProt P43220). Conditions: read-out: Mean EC50; cAMP, HTRF detection, 30 min at 37° C., HEK-293 cells expressing cloned human GLP-1 receptor.
Sequence of human GLP-1 receptor (P43220 24-463): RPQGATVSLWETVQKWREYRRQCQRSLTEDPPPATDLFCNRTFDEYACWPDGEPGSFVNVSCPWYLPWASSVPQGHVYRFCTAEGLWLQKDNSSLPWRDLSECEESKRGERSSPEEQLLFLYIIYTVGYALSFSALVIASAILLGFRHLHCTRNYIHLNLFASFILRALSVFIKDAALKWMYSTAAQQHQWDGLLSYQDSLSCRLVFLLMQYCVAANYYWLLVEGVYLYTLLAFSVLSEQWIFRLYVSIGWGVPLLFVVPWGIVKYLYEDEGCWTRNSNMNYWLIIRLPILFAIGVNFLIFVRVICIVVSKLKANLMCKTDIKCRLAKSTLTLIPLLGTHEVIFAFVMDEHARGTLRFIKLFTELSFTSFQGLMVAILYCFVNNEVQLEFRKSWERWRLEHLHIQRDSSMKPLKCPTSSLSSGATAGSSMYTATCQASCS
Procedure: Following overnight incubation of cells, media was removed, and compounds (at concentrations ranging from 0.0001 to 100 μM) were added to monolayer cells in Iscove's modified dulbecco's medium (IMDM), 100 μM RO 20-1724 PDE inhibitor, 0.1% BSA, 2% DMSO in a final volume of 100 μL, and incubated for 30 min at 37° C. […] Alternatively, cells were harvested and combined with compounds in suspension using the buffer and protocol described above. cAMP was quantified using a homogenous time-resolved fluorescence detection system (cAMP dynamic, CIS bio International).

Row | EC50 [nM] | Structure (SMILES)
1 | 34 | CC[C@@H](c1ccccc1)N1Cc2cc3c(cc2C[C@H]1C(=O)N[C@@H](Cc1ccc(-c2ccnc(CF)c2)cc1)C(=O)O)OC[C@H](c1ccc(OCc2ccc(Cl)c(Cl)c2)cc1)O3 [Example 212, (S)-2-{[(3S,8S)-3-[4-(3,4-Dichloro-benzyloxy)-phenyl]-7-((S)-1-phenyl-propyl)-2,3,6,7,8,9-hexahydro-[1,4]dioxino[2,3-g]isoquinoline-8-carbonyl]-amino}-3-[4-(2-fluoromethyl-pyridin-4-yl)-phenyl]-propionic acid]
2 | 17 | Cc1nc(C(=O)N2Cc3cc4c(cc3C[C@H]2C(=O)N[C@@H](Cc2ccc(-c3ccnc(C)c3C)cc2)C(=O)O)OC[C@H](c2ccc(OCc3ccc(Cl)c(Cl)c3)cc2)O4)c(C)o1 [Example 216, (S)-2-{[(3S,8S)-3-[4-(3,4-Dichloro-benzyloxy)-phenyl]-7-(2,5-dimethyl-oxazole-4-carbonyl)-2,3,6,7,8,9-hexahydro-[1,4]dioxino[2,3-g]isoquinoline-8-carbonyl]-amino}-3-[4-(2,3-dimethyl-pyridin-4-yl)-phenyl]-propionic acid]
3 | 24 | Cc1nc(C(=O)N2Cc3cc4c(cc3C[C@H]2C(=O)N[C@@H](Cc2ccc(-c3ccnc(C)c3C)cc2)C(=O)O)OC[C@H](c2ccc(OCc3ccc(C)c(C)c3)cc2)O4)c(C)o1 [Example 217, (S)-2-{[(3S,8S)-3-[4-(3,4-Dimethyl-benzyloxy)-phenyl]-7-(2,5-dimethyl-oxazole-4-carbonyl)-2,3,6,7,8,9-hexahydro-[1,4]dioxino[2,3-g]isoquinoline-8-carbonyl]-amino}-3-[4-(2,3-dimethyl-pyridin-4-yl)-phenyl]-propionic acid]
4 | 75 | Cc1nc(C(=O)N2Cc3cc4c(cc3C[C@H]2C(=O)N[C@@H](Cc2ccc(-c3ccnc(C)c3C)cc2)C(=O)O)OC[C@H](c2ccc(OC[C@H]3CC[C@H](C)CC3)cc2)O4)c(C)o1 [Example 222, (S)-2-({(3S,8S)-7-(2,5-Dimethyl-oxazole-4-carbonyl)-3-[4-(trans-4-methyl-cyclohexyl-methoxy)-phenyl]-2,3,6,7,8,9-hexahydro-[1,4]dioxino[2,3-g]isoquinoline-8-carbonyl}-amino)-3-[4-(2,3-dimethyl-pyridin-4-yl)-phenyl]-propionic acid]
5 | 176 | Cc1nc(C(=O)N2Cc3cc4c(cc3C[C@H]2C(=O)N[C@@H](Cc2ccc(-c3ccnc(C)c3C)cc2)C(=O)O)OC[C@H](c2ccc(OCC3CCC(F)(F)CC3)cc2)O4)c(C)o1 [Example 223, (S)-2-{[(3S,8S)-3-[4-(4,4-Difluoro-cyclohexylmethoxy)-phenyl]-7-(2,5-dimethyl-oxazole-4-carbonyl)-2,3,6,7,8,9-hexahydro-[1,4]dioxino[2,3-g]isoquinoline-8-carbonyl]-amino}-3-[4-(2,3-dimethyl-pyridin-4-yl)-phenyl]propionic acid]
6 | 183 | Cc1nc(C(=O)N2Cc3cc4c(cc3C[C@H]2C(=O)N[C@@H](Cc2ccc(-c3ccnc(C)c3C)cc2)C(=O)O)OC[C@H](c2ccc(OCC3CCC(C(F)(F)F)CC3)cc2)O4)c(C)o1 (stereo partly drawn) [Example 225, (S)-2-({(3S,8S)-7-(2,5-Dimethyl-oxazole-4-carbonyl)-3-[4-(4-trifluoromethyl-cyclohexylmethoxy)-phenyl]-2,3,6,7,8,9-hexahydro-[1,4]dioxino[2,3-g]isoquinoline-8-carbonyl}-amino)-3-[4-(2,3-dimethyl-pyridin-4-yl)-phenyl]-propionic acid]
7 | 22 | Cc1nccc(-c2ccc(C[C@H](NC(=O)[C@@H]3Cc4cc5c(cc4CN3Cc3ncccc3F)O[C@@H](c3ccc(OCc4ccc(Cl)c(Cl)c4)cc3)CO5)C(=O)O)cc2)c1C [Example 228, (S)-2-{[(3S,8S)-3-[4-(3,4-Dichloro-benzyloxy)-phenyl]-7-(3-fluoro-pyridin-2-ylmethyl)-2,3,6,7,8,9-hexahydro-[1,4]dioxino[2,3-g]isoquinoline-8-carbonyl]-amino}-3-[4-(2,3-dimethyl-pyridin-4-yl)-phenyl]-propionic acid]
8 | 76 | COc1cccc(CN2Cc3cc4c(cc3C[C@H]2C(=O)N[C@@H](Cc2ccc(-c3ccnc(C)c3C)cc2)C(=O)O)OC[C@H](c2ccc(OCc3ccc(Cl)c(Cl)c3)cc2)O4)n1 [Example 229, (S)-2-{[(3S,8S)-3-[4-(3,4-Dichloro-benzyloxy)-phenyl]-7-(6-methoxy-pyridin-2-ylmethyl)-2,3,6,7,8,9-hexahydro-[1,4]dioxino[2,3-g]isoquinoline-8-carbonyl]-amino}-3-[4-(2,3-dimethyl-pyridin-4-yl)phenyl]-propionic acid]
9 | 18 | Cc1nccc(-c2ccc(C[C@H](NC(=O)[C@@H]3Cc4cc5c(cc4CN3Cc3nccn3C)O[C@@H](c3ccc(OCc4ccc(Cl)c(Cl)c4)cc3)CO5)C(=O)O)cc2)c1C [Example 230, (S)-2-{[(3S,8S)-3-[4-(3,4-Dichloro-benzyloxy)-phenyl]-7-(1-methyl-1H-imidazol-2-ylmethyl)-2,3,6,7,8,9-hexahydro-[1,4]dioxino[2,3-g]isoquinoline-8-carbonyl]-amino}-3-[4-(2,3-dimethyl-pyridin-4-yl)phenyl]-propionic acid]
10 | 39 | Cc1nccc(-c2ccc(C[C@H](NC(=O)[C@@H]3Cc4cc5c(cc4CN3Cc3nccs3)O[C@@H](c3ccc(OCc4ccc(Cl)c(Cl)c4)cc3)CO5)C(=O)O)cc2)c1C [Example 231, (S)-2-({(3S,8S)-3-[4-(3,4-Dichloro-benzyloxy)-phenyl]-7-thiazol-2-ylmethyl-2,3,6,7,8,9-hexahydro-[1,4]dioxino[2,3-g]isoquinoline-8-carbonyl}-amino)-3-[4-(2,3-dimethyl-pyridin-4-yl)-phenyl]-propionic acid]
11 | 133 | Cc1nc(CN2Cc3cc4c(cc3C[C@H]2C(=O)N[C@@H](Cc2ccc(-c3ccnc(C)c3C)cc2)C(=O)O)OC[C@H](c2ccc(OCc3ccc(Cl)c(Cl)c3)cc2)O4)c(C)o1 [Example 232, (S)-2-{[(3S,8S)-3-[4-(3,4-Dichloro-benzyloxy)-phenyl]-7-(2,5-dimethyl-oxazol-4-ylmethyl)-2,3,6,7,8,9-hexahydro-[1,4]dioxino[2,3-g]isoquinoline-8-carbonyl]-amino}-3-[4-(2,3-dimethyl-pyridin-4-yl)-phenyl]-propionic acid]
12 | 56 | Cc1nccc(-c2ccc(C[C@H](NC(=O)[C@@H]3Cc4cc5c(cc4CN3C(=O)c3ccccn3)O[C@@H](c3ccc(OCc4ccc(Cl)c(Cl)c4)cc3)CO5)C(=O)O)cc2)c1C [Example 236, (S)-2-{[(3S,8S)-3-[4-(3,4-Dichloro-benzyloxy)-phenyl]-7-(pyridine-2-carbonyl)-2,3,6,7,8,9-hexahydro-[1,4]dioxino[2,3-g]isoquinoline-8-carbonyl]-amino}-3-[4-(2,3-dimethyl-pyridin-4-yl)-phenyl]-propionic acid]
13 | 146 | Cc1ncoc1C(=O)N1Cc2cc3c(cc2C[C@H]1C(=O)N[C@@H](Cc1ccc(-c2ccnc(C)c2C)cc1)C(=O)O)OC[C@H](c1ccc(OCc2ccc(Cl)c(Cl)c2)cc1)O3 [Example 238, (S)-2-{[(3S,8S)-3-[4-(3,4-Dichloro-benzyloxy)-phenyl]-7-(4-methyl-oxazole-5-carbonyl)-2,3,6,7,8,9-hexahydro-[1,4]dioxino[2,3-g]isoquinoline-8-carbonyl]-amino}-3-[4-(2,3-dimethyl-pyridin-4-yl)-phenyl]-propionic acid]
